In assay [1] the test system is S. aureus E48 in mammary glands. Put plainly: Mouse model of S. aureus-induced mastitis. The assay is classed as in vivo, BALB/c mice. As to the method: The animal protocols used in this work were approved by Institutional Animal Care and Use Committee of Northwest A&F University. The 6- to 8-week-old specific-pathogen-free BALB/c mice were purchased from the Experimental Animal Center of the Medical College of Xi’an Jiao Tong University. […] The lactating mice were challenged with S. aureus E48 as described earlier ([Schmelcher et al., 2015]). The pentobarbital sodium (1.4 mg/20 g bodyweight) was used for anesthesia of the lactating mice by intraperitoneal injection. The distal end of the teat L4 (on the left) and R4 (on the right) was removed (snipped) by a small cut. These L4 and R4 glands constitute the fourth pair found from head to tail. For all groups except for the snipped only group, glands were injected with approximately 10^4 CFU S. aureus in 50 μL PBS. At 45 min after S. aureus inoculation, the challenged glands were injected with 100 μg AMPs in 20 μL or 20 μL of PBS, depending on the treatment. The mice were euthanized 24 h after the S. aureus inoculation, and mammary glands were aseptically collected and weighed. Five mice (10 mammary glands) were used for each group. Seven mammary glands from each treatment were sampled and homogenized in PBS (100 mg/200 μL). Serial dilution plating on Baird-Parker agar plates was done to determine intramammary S. aureus. A part of the homogenate was centrifuged, and the supernatant was used for tumor necrosis factor alpha (TNF-α) and interleukin 6 (IL-6) assays, using the mouse TNF-α and IL-6 ELISA kits (Shanghai Bangyi Biotechnology). The tissue from three mammary glands from each treatment was fixed with 10% buffered formalin for histopathological analyses (HE staining).

The subject of assay [2] is Staphylococcus aureus E48. Put plainly: Minimum inhibitory concentration (broth microdilution, Mueller-Hinton broth). The assay is classed as cell-based. The conditions noted are these: 5 × 10^5 CFU/mL, 37°C, 16-20 h, three replicates, read-out: MIC against S. aureus E48. As for the experimental part: Staphylococcus aureus E48, a clinical mastitis isolate, had been used to induce mouse mastitis model ([Wang et al., 2017]). […] It was used as a positive control in this study and was purchased from Sigma–Aldrich. The AMPs were prepared according to a previously described protocol ([Zhang et al., 2015]). The minimum inhibitory concentrations (MICs) were used to evaluate the antibacterial activities of antimicrobial agents ([Wiegand et al., 2008]). Briefly, S. aureus were grown to the log-phase at 37°C in the Mueller–Hinton broth, and diluted to 5 × 10^5 CFU/mL with the fresh medium. A total of 180 μL of cell suspension and 20 μL of serially twofold diluted peptide were added to each well, and the plates were incubated at 37°C for 16–20 h. The final concentration of antimicrobial agents was prepared with gradients of 64, 32, 16, 8, 4, 2, 1, 0.5, 0.25, 0.125, and 0.0625 μg/mL. Three replicates were examined for each concentration. The MICs refer to the lowest concentration where no growth was visible after 16–20 h of incubation.

Setting [3] is: 100 μg intramammary, 24 h post-infection, ELISA, P < 0.05.

Structures are written as SMILES. Converted amounts (≈) assume the structure as drawn.

Usually MIC stands for the smallest concentration in the dilution series that meets the test's criterion for growth inhibition. `CN(C)[C@@H]1C(O)=C(C(N)=O)C(=O)[C@@]2(O)C(O)=C3C(=O)c4c(O)cccc4[C@@](C)(O)[C@H]3C[C@@H]12` [tetracycline, Tetracycline]: the “Reduction of S. aureus numbers in mammary glands compared to PBS control” value in assay [1] (100 μg intramammary 45 min after ~10^4 CFU inoculation, 24 h after inoculation) is recorded as 1.48 log10 units. Besides, in assay [1] (100 μg intramammary, 24 h), the “S. aureus-induced inflammatory cell infiltration in mammary tissue (HE staining)” value is “significantly reduced”. In assay [1] (setting [3]), the “Intramammary IL-6 concentration in comparison with buffer control” value is “significantly reduced” and the “Intramammary TNF-α concentration in comparison with buffer control” value is “significantly reduced”. Further, in assay [2], the MIC was 1 µg/mL (≈ 2.25 µM).

Source of the values: PMC5723147, “Effective Antimicrobial Activity of Plectasin-Derived Antimicrobial Peptides against Staphylococcus aureus Infection in Mammary Glands” (Frontiers in Microbiology, 2017).
